Source: patent publication US12350270B2, “Antimalarial agents” (Merck Sharp & Dohme LLC, priority 2019, dated 2025)

test system: parasites (ring stage, in human red blood cell culture); assay: Parasite LDH growth assay (antiparasite potency, Parasite Assay); assay type: cell-based, Plasmodium falciparum; details: 0.7% rings, 2% haematocrit, 72 hours at 37° C., LDH readout of parasite growth
Experimental: Assessing Antiparasite Potency in a Parasite LDH Growth Assay (Parasite Assay)
The parasite stock was maintained at 4% haematocrit in RPMI-Hepes media buffered with sodium bicarbonate and supplemented with 5% heat inactivated human serum and 0.5% albumax.
On the day of assay set up, a blood smear of the parasite culture was Giemsa stained and counted. The parasitemia was adjusted to 0.7% rings and the haematocrit was diluted to 2% in RPMI-Hepes media buffered with sodium bicarbonate and supplemented with 5% heat inactivated human serum and 0.5% albumax. 30 ul of diluted parasites are then added into 10 ul of media+compound in pre-prepared Greiner TC assay plates. Parasite assay plates were placed in gassed humidified boxes in single layer and allowed to incubate at 37° C. for 72 hours. After 72 hours growth, assay plates are sealed with parafilm and frozen flat, in single file at −80° C. overnight. On the following day, assay plates are allowed to thaw at room temperature for 4 hours to which an LDH assay is performed to measure parasite growth.

Structure (SMILES)	EC50
CC[C@]1(C)CC(=O)N([C@@H]2CCOc3ccc(C(=O)NC4c5cc(F)ccc5OCC4(C)O)cc32)C(=N)N1 (single isomer, unassigned) [Example 190C]	4.9 nM
CCC1(CC)CC(=O)N([C@H]2c3cc(C(=O)N[C@@H]4c5ccccc5C[C@H]4O)ccc3OCC2OC)C(=N)N1 (stereo partly drawn) [Example 72A, (3R,4S)-4-(4,4-diethyl-2-imino-6-oxotetrahydropyrimidin-1(2H)-yl)-N-((lR,2R)-2-hydroxy-2,3-dihydro-1H-inden-1-yl)-3-methoxychromane-6-carboxamide]	0.5 nM
CC(C)[C@]1(C)CC(=O)N([C@@H]2CC(C)(C)Oc3ccc(C(=O)N[C@@H]4c5ccccc5OC[C@H]4O)cc32)C(=N)N1 [Example 45A, (R)-N-((3S,4R)-3-hydroxychroman-4-yl)-4-((S)-2-imino-4-isopropyl-4-methyl-6-oxotetrahydropyrimidin-1(2H)-yl)-2,2-dimethylchromane-6-carboxamide]	2.6 nM
CCC1(CC)CC(=O)N([C@H]2c3cc(C(=O)N[C@H]4CC(C)(C)Oc5ccccc54)ccc3O[C@]2(C)COC)C(=N)N1 (single isomer, unassigned) [Example 74B]	6.5 nM
CC(C)[C@]1(C)CC(=O)N([C@@H]2CC(C)(C)Oc3ccc(C(=O)N[C@@H]4c5ccccc5OC[C@H]4O)cc32)C(=N)N1 [Example 40A, (R)-N-((3S,4R)-3-hydroxychroman-4-yl)-4-((S)-2-imino-4-isopropyl-4-methyl-6-oxotetrahydropyrimidin-1(2H)-yl)-2,2-dimethylchromane-6-carboxamide]	69.5 nM
CCC1(CC)CC(=O)N([C@@H]2CC(C)(C)Oc3ccc(C(=O)N[C@@H]4c5ccccc5CC4(C)O)cc32)C(=N)N1 (single isomer, unassigned) [Example 42B]	3.2 nM
CCC1(CC)CC(=O)N([C@@H]2CCOc3ccc(C(=O)NC4c5ccc(OC)cc5OCC4(C)O)cc32)C(=N)N1 (single isomer, unassigned) [Example 258B]	2.4 nM
CCOC(=O)C1(C)Oc2ccccc2C1NC(=O)c1ccc2c(c1)[C@H](N1C(=N)NC(CC)(CC)CC1=O)CCO2 (single isomer, unassigned) [Example 65A]	68 nM
CCC1(CC)CC(=O)N([C@H]2c3cc(C(=O)N[C@@H]4c5ccccc5OC(C)(C)[C@H]4O)ccc3OC2(C)COC)C(=N)N1 (single isomer, unassigned) [Example 73A]	0.3 nM
CCC1(CC)CC(=O)N([C@@H]2CCOc3ccc(C(=O)NC4c5cc(F)ccc5OCC4(C)O)cc32)C(=N)N1 (single isomer, unassigned) [Example 226A]	2.6 nM

same assay, conditions: Plasmodium falciparum, Erythrocyte, 72 h, 0.7% rings, 2% haematocrit, 72 hours at 37° C., LDH readout of parasite growth

Structure (SMILES)	EC50
CCC1(CC)CC(=O)N([C@@H]2CCOc3ccc(C(=O)N[C@@H]4c5ccccc5C(F)(F)[C@H]4O)cc32)C(=N)N1 [Example 198, (4R)-4-(4,4-diethyl-2-imino-6-oxo-hexahydropyrimidin-1-yl)-N-[(1R,2S)-3,3-difluoro-2-hydroxy-indan-1-yl]chromane-6-carboxamide]	11.3 nM
CC1(C)CC(=O)N(C2c3cc(C(=O)N[C@H]4CC(C)(C)Oc5ccccc54)ccc3OCC2O)C(=N)N1 (stereo partly drawn) [Example 144, N-[(4S)-2,2-dimethylchroman-4-yl]-3-hydroxy-4-(2-imino-4,4-dimethyl-6-oxo-hexahydropyrimidin-1-yl)chromane-6-carboxamide]	194 nM
CC[C@]1(C)CC(=O)N([C@H]2c3cc(C(=O)N[C@@H]4c5ccccc5C(F)(F)[C@H]4O)ccc3OC[C@@H]2OC)C(=N)N1 [Example 232, (3R,4S)-N-[(1R,2S)-3,3-difluoro-2-hydroxy-indan-1-yl]-4-[(4R)-4-ethyl-2-imino-4-methyl-6-oxo-hexahydropyrimidin-1-yl]-3-methoxy-chromane-6-carboxamide]	21.8 nM
CC1(C)CC(=O)N(C2CC(C)(C)c3ccc(C(=O)N[C@@H]4c5ccccc5OC[C@H]4O)cc32)C(=N)N1 (stereo partly drawn) [Example 101, N-[(3S,4R)-3-hydroxychroman-4-yl]-3-(2-imino-4,4-dimethyl-6-oxo-hexahydropyrimidin-1-yl)-1,1-dimethyl-indane-5-carboxamide]	46.7 nM
CCC1(CC)CC(=O)N([C@H]2c3cc(C(=O)N[C@@H]4c5ccccc5OC(C)(C)[C@H]4O)ccc3OC2(C)C)C(=N)N1 [Example 245, (3S)-3-(4,4-diethyl-2-imino-6-oxo-hexahydropyrimidin-1-yl)-N-[(3S,4R)-3-hydroxy-2,2-dimethyl-chroman-4-yl]-2,2-dimethyl-3H-benzofuran-5-carboxamide]	0.8 nM
CCC1(CC)CC(=O)N([C@H]2c3cc(C(=O)N[C@@H]4c5ccccc5OC[C@@]4(C)O)ccc3CC[C@@H]2OC)C(=N)N1 [Example 247, (3S,4S)-4-(4,4-diethyl-2-imino-6-oxo-hexahydropyrimidin-1-yl)-N-[(3S,4R)-3-hydroxy-3-methyl-chroman-4-yl]-3-methoxy-tetralin-6-carboxamide]	4.5 nM
CC[C@]1(C)CC(=O)N([C@H]2c3cc(C(=O)N[C@@H]4c5ccccc5C[C@H]4O)ccc3OCC2(C)C)C(=N)N1 [Example 126, (4R)-4-[(4R)-4-ethyl-2-imino-4-methyl-6-oxo-hexahydropyrimidin-1-yl]-N-[(1R,2R)-2-hydroxyindan-1-yl]-3,3-dimethyl-chromane-6-carboxamide]	14.3 nM
COC1COc2ccc(C(=O)N[C@@H]3c4ccccc4C[C@]3(C)O)cc2C1N1C(=N)NC(C)(C)CC1=O (stereo partly drawn) [Example 142, N-[(1R,2S)-2-hydroxy-2-methyl-indan-1-yl]-4-(2-imino-4,4-dimethyl-6-oxo-hexahydropyrimidin-1-yl)-3-methoxy-chromane-6-carboxamide]	98.5 nM
CCC1(CC)CC(=O)N([C@@H]2CCOc3ccc(C(=O)N[C@@H]4c5cc(Cl)ccc5OC(C)(C)[C@H]4O)cc32)C(=N)N1 [Example 19A, (R)-N-((3S,4R)-6-chloro-3-hydroxy-2,2-dimethylchroman-4-yl)-4-(4,4-diethyl-2-imino-6-oxotetrahydropyrimidin-1(2H)-yl)chromane-6-carboxamide]	0.3 nM
CC[C@]1(C)CC(=O)N([C@@H]2C[C@@H](C)c3ccc(C(=O)N[C@@H]4c5ccccc5OC[C@]4(C)O)cc32)C(=N)N1 [Example 130, (1R,3R)-3-[(4R)-4-ethyl-2-imino-4-methyl-6-oxo-hexahydropyrimidin-1-yl]-N-[(3R,4R)-3-hydroxy-3-methyl-chroman-4-yl]-1-methyl-indane-5-carboxamide]	2.1 nM
CCC1(CC)CC(=O)N([C@@H]2CCOc3ccc(C(=O)N[C@H]4CC(C)(C)Oc5ccccc54)nc32)C(=N)N1 [Example 31B, (R)-4-(4,4-diethyl-2-imino-6-oxotetrahydropyrimidin-1(2H)-yl)-N-((S)-2,2-dimethylchroman-4-yl)-3,4-dihydro-2H-pyrano[3,2-b]pyridine-6-carboxamide]	1 nM
CCC1(CC)CC(=O)N([C@H]2c3cc(C(=O)N[C@@H]4c5ccccc5C[C@H]4O)ccc3OC[C@@H]2C)C(=N)N1 [Example 120, (3R,4R)-4-(4,4-diethyl-2-imino-6-oxo-hexahydropyrimidin-1-yl)-N-[(1R,2R)-2-hydroxyindan-1-yl]-3-methyl-chromane-6-carboxamide]	0.8 nM
CC1(C)CC(=O)N([C@@H]2CC(C)(C)Oc3ccc(C(=O)N[C@@H]4c5cc(F)ccc5OC(C)(C)[C@H]4O)cc32)C(=N)N1 [Example 58B, (R)-N-((3S,4R)-6-fluoro-3-hydroxy-2,2-dimethylchroman-4-yl)-4-(2-imino-4,4-dimethyl-6-oxotetrahydropyrimidin-1(2H)-yl)-2,2-dimethylchromane-6-carboxamide]	3.8 nM
CC[C@]1(C)CC(=O)N(C2c3cc(C(=O)N[C@@H]4c5ccccc5C[C@H]4O)ccc3OCC2OC)C(=N)N1 (stereo partly drawn) [Example 145, 4-[(4R)-4-ethyl-2-imino-4-methyl-6-oxo-hexahydropyrimidin-1-yl]-N-[(1R,2R)-2-hydroxyindan-1-yl]-3-methoxy-chromane-6-carboxamide]	40.8 nM
CC1(C)CC(=O)N([C@@H]2CCOc3ccc(C(=O)N[C@@H]4c5cc(Cl)ccc5OC[C@H]4O)cc32)C(=N)N1 [Example 153, (4R)-N-[(3S,4R)-6-chloro-3-hydroxy-chroman-4-yl]-4-(2-imino-4,4-dimethyl-6-oxo-hexahydropyrimidin-1-yl)chromane-6-carboxamide]	11.5 nM
CCC1(CC)CC(=O)N([C@@H]2CCOc3c(Cl)cc(C(=O)N[C@@H]4c5ccccc5OC(C)(C)[C@H]4O)cc32)C(=N)N1 [Example 29A, (R)-8-chloro-4-(4,4-diethyl-2-imino-6-oxotetrahydropyrimidin-1(2H)-yl)-N-((3S,4R)-3-hydroxy-2,2-dimethylchroman-4-yl)chromane-6-carboxamide]	1 nM
CCC1(CC)CC(=O)N([C@H]2c3cc(C(=O)N[C@@H]4c5ccccc5OC[C@]4(C)O)ccc3O[C@]2(C)COC)C(=N)N1 [Example 278, (2S,3S)-3-(4,4-diethyl-2-imino-6-oxo-hexahydropyrimidin-1-yl)-N-[(3R,4R)-3-hydroxy-3-methyl-chroman-4-yl]-2-(methoxymethyl)-2-methyl-3H-benzofuran-5-carboxamide]	12.2 nM
CCC1(CC)CC(=O)N([C@H]2CCS(=O)(=O)c3ccc(C(=O)N[C@@H]4c5ccccc5C[C@@]4(C)O)cc32)C(=N)N1 [Example 261, (4S)-4-(4,4-diethyl-2-imino-6-oxo-hexahydropyrimidin-1-yl)-N-[(1R,2R)-2-hydroxy-2-methyl-indan-1-yl]-1,1-dioxo-3,4-dihydro-2H-thiochromene-6-carboxamide]	133 nM
